# Test results taken from publication PMC7318243, “Computationally Empowered Workflow Identifies Novel Covalent Allosteric Binders for KRAS^G12C” (Chemmedchem, 2020).
# How the values were obtained:
# KRAS^G12C = molecular target: T1, KRAS^G12C (Homo sapiens, UniProt P01116, G12C); assay: Biochemical assay: KRAS^G12C activation by SOS1CAT (HTRF, fluorescent GTP loading); details: 180 min pre-incubation with KRAS before addition of SOS1
# T1 construct: KRASG12C (aa 1–169, G12C) were produced for the biochemical assay; made in house
# T1 sequence (P01116 1-169 isoform P01116-2 G12C): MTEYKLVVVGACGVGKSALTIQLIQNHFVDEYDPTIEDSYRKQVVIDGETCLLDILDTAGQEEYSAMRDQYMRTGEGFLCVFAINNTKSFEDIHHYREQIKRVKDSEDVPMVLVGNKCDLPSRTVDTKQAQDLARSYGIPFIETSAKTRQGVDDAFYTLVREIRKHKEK
# Description: One of the most synthetically accessible compounds, 1,6‐naphthyridin‐5(6H)‐one (1), was prepared (Table 1; Scheme S1). Structurally close to 1, isoquinolin‐1(2H)‐one 2 derivatives were also considered for the exploration of structure‐activity relationships (SAR). To measure the proportion of inhibitor reacting with Cys12 of the KRAS^G12C mutant, the bound/unbound protein ratio was quantified by mass spectrometry (MS). Then, the inhibition potency of these compounds towards KRAS^G12C was evaluated in biochemical assays measuring the activation of GDP‐bound KRAS^G12C or KRAS^WT by SOS1.19 […]
# 3.3 Biochemical activity assays
# Measurement of (i) KRASG12C activation by SOS1CAT and (ii) wild-type KRAS activation by SOS1CAT was performed following the previously described protocol, [19] with a pre-incubation time of the test compound with KRAS proteins extended to 180 min before addi tion of SOS1.
# This assay quantifies SOS1 CAT mediated loading of KRAS G12C–GDP with a fluorescent GTP analogue. Detection of successful loading was achieved by measuring resonance energy transfer from anti-GST-terbium (FRET donor) bound to GST -KRASG12C to the loaded fluorescent GTP analogue (FRET acceptor). The fluorescent GTP analogue EDA –GTP–DY-647P1 [2'/3'-O-(2-aminoethyl-carbamoyl)guanosine-5'-triphosphate labelled with DY-647P1 (Dyomics GmbH, Germany)] was synthesized by Jena Bioscience (Germany) a nd supplied as a 1 mM aqueous solution. A KRASG12C working solution was prepared in assay buffer [10 mM HEPES pH 7.4 (AppliChem), 150 mM NaCl (Sigma), 5 mM MgCl2 (Sigma), 1 mM DTT (Thermo Fisher), 0.05% BSA Fraction V pH 7.0 (ICN Biomedicals), 0.0025% (v/v) Igepal (Sigma)] containing 100 nM GST-KRASG12C and 2 nM anti-GST-terbium (Cisbio, France). A SOS1 CAT working solution was prepared in an assay buffer containing 20 nM SOS1CAT and 200 nM EDA–GTP–DY-647P1. An inhibitor control solution was prepared in an assay buffer containing 200 nM EDA–GTP–DY-647P1 without […]
# SOS1CAT. All steps of the assay were performed at 20 °C. A volume of 2.5 µL of the KRASG12C working solution was added to all wells of the test plate using a Multidrop dispenser (Thermo LabSystems). After 180 min, 2.5 µL of the SOS1CAT working solution was added to all wells, except for the inhibitor control solution wells. After 30 min incubation, HTRF was measured. […]
# SYNAPT G2-S quadrupole time-of-flight mass spectrometer connected to a Waters nanoAcquity UPLC system. Samples were loaded on a 2.1 x 5 mm mass prep C4 guard column (Waters) and desalted with a short grad ient (3 min) of increasing concentrations of acetonitrile at a flow rate of 100 µL/min. Spectra were analyzed by using MassLynx v4.1 software and deconvoluted with the MaxEnt1 algorithm. Percent of conversion was determined by the ratio of signal intensiti es of apo-KRAS and KRAS + inhibitor.
# active RAS = assay: Cellular assay for RAS activation (G-LISA); format: cell-based; details: 24 h treatment; read-out: Cellular IC50 (inhibition of active RAS formation)
# Description: SOS1CAT. All steps of the assay were performed at 20 °C. A volume of 2.5 µL of the KRASG12C working solution was added to all wells of the test plate using a Multidrop dispenser (Thermo LabSystems). After 180 min, 2.5 µL of the SOS1CAT working solution was added to all wells, except for the inhibitor control solution wells. After 30 min incubation, HTRF was measured.
# In the KRASWT activation by SOS1cat assay, human SOS1CAT mediated loading of GST-KRASWT– GDP was quantified with a fluorescent GTP analogue. The assay was performed as described above for the KRASG12C activation. GST-KRASG12C was replaced by GST-KRASWT, used at a final […]
# 3.4 Covalent binding assay by mass spectrometry
# The percentage of covalent adduct formation at KRAS G12C was determined by intact mass determination. To this end, 25 µM recombinant KRAS mutant (G12C , C51S, C80L, C118S) was incubated with 25 µM compound (1% v/v DMSO final concentration) in 50 mM Tris, pH 8.0, 50 mM NaCl at room temperature for 2 h. Reaction mixture (20 µL) was acidified by addi tion of 4% v/v TFA (4 µL). […] Spectra were analyzed by using MassLynx v4.1 software and deconvoluted with the MaxEnt1 algorithm. Percent conversion was determined by the ratio of signal intensities of […] and KRASG12C + inhibitor. […]
# Using the G-LISA Kit (Cytoskeleton BK131, RAS Activation Assay), 50000 cells are seeded in a 96 well plate for 72 h at 37 °C (10% FBS, DMEM/Ham's F-12, 2 mM L-Glutamine). […] Finally, the content of active R AS is measured by detecting the absorbance at 490 nm. […]
# The percentage of covalent adduct formation at KRASG12C was determined for compounds 1, 2 and 13 by intact mass determination. […]
# Liquid chromatography-mass spectrometry (LC-MS) analysis was performed using a Waters SYNAPT G2-S quadrupole time-of-flight mass spectrometer connected to a Waters nanoAcquity UPLC system. […] Spectra were analyzed by using MassLynx v4.1 software and deconvoluted with the MaxEnt1 algorithm. Percent of conversion was determined by the ratio of signal intensiti es of apo-KRAS and KRAS + inhibitor.
Structure (SMILES),IC50 (KRAS^G12C),IC50 (active RAS)
"C=CC(=O)N1CCC(c2cc3ncc(-c4c(O)cccc4F)cc3c(=O)[nH]2)C1 (stereo not drawn) [Compound 1, 3-(2-Fluoro-6-hydroxyphenyl)-7-[1-(prop-2-enoyl)pyrrolidin-3-yl]-1,6-naphthyridin-5(6H)-one]",2.8 µM,> 30 µM
"C=CC(=O)N1CCC(c2cc3ccc(-c4c(O)cccc4F)cc3c(=O)[nH]2)C1 (stereo not drawn) [Compound 2, 7-(2-Fluoro-6-hydroxyphenyl)-3-[1-(prop-2-enoyl)pyrrolidin-3-yl]isoquinolin-1(2H)-one]",4.7 µM,> 30 µM
"C=CC(=O)N1CCC(c2cc3cnc(-c4c(O)cccc4F)cc3c(=O)[nH]2)C1 (stereo not drawn) [Compound 13, 7-(2-Fluoro-6-hydroxyphenyl)-3-[1-(prop-2-enoyl)pyrrolidin-3-yl]-2,6-naphthyridin-1(2H)-one]",1.3 µM,22 µM
